From publication PMC12720774, “Detergents alter the stability and lipid binding properties of the CD1d immunoreceptor” (Protein Science : A Publication of the Protein Society, 2025)
Several values for one entry are separate records, joined by “and”; a condition that tells them apart may be missing. Identical values can stand only once. Like-named read-outs stand apart in the source and are kept apart here.

Columns and labels:
[1] = biological target: T1, recombinant human CD1d ectodomain/β2m complex (hCD1d) (Homo sapiens, UniProt P15813); experiment: Intrinsic tryptophan fluorescence (ITF) binding assay
T1 construct: TEV protease cleavage site ENLYFQS (C); BirA biotinylation site (C); His7 (C); made in house; host or cells: TurboCHO cells (GenScript)
T1 sequence (P15813 whole entry, looked up, the tested form may be a part, one chain of several): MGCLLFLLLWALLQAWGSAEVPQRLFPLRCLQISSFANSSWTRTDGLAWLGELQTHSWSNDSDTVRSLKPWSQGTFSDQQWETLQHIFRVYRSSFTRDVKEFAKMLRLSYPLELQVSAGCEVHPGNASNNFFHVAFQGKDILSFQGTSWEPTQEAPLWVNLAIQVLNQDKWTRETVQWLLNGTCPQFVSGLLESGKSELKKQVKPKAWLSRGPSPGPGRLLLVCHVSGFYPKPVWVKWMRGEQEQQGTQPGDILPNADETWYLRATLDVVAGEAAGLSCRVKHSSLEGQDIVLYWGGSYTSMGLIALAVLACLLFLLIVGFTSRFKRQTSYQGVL
Procedure: (§1) For ITF assays, the concentration of hCD1d was kept constant, and intrinsic Trp fluorescence (excitation at 285 nm, emission at 335 nm) was measured as a function of increasing detergent concentration (Fossum et al., [2023]) (Figure S2). The change in relative fluorescence intensity (F − F 0/F 0) provides an indication of binding. […] This was due to limited detergent solubility and decreased hCD1d stability in the presence of a large excess of detergent (see below). […] SDS was the exception, for which Trp fluorescence of hCD1d decreased with added detergent. This could indicate a unique conformational change or destabilization of the protein.
(§2) ITF spectra were recorded from 300 to 500 nm using a Horiba FL3‐21 Fluorometer with the excitation wavelength of 285 nm and excitation/emission slits of 6.2 nm. Fluorescence spectra of 50 to 100 nM hCD1d were acquired in the absence and presence of detergents in 1X PBS pH 7.4 at 25°C. Prior to data acquisition, hCD1d and detergent or lipid samples were incubated at 37°C overnight (~12 h) to simulate in vitro and in vivo loading conditions. […] For 18:1 LPC experiments, fluorescence spectra of 100 nM hCD1d were acquired in the absence and presence of 18:1 LPC in 1X PBS pH 7.4 at 25°C. […] For all ITF experiments, the change in fluorescence signal (F − F 0/F 0) was determined at 335 nm. Three replicates were performed, and data are presented as the mean ± standard deviation (n = 3). K D values were fitted with non‐linear regression in GraphPad Prism v10.1.

[2] = biological target: T2, recombinant human CD1d ectodomain/β2m complex (hCD1d) (Homo sapiens, UniProt P15813+P61769); experiment: as above
T2 construct: TEV protease cleavage site ENLYFQS (C); BirA biotinylation site (C); His7 (C); made in house; host or cells: TurboCHO cells (GenScript)
T2 sequence (P61769+P15813 fused): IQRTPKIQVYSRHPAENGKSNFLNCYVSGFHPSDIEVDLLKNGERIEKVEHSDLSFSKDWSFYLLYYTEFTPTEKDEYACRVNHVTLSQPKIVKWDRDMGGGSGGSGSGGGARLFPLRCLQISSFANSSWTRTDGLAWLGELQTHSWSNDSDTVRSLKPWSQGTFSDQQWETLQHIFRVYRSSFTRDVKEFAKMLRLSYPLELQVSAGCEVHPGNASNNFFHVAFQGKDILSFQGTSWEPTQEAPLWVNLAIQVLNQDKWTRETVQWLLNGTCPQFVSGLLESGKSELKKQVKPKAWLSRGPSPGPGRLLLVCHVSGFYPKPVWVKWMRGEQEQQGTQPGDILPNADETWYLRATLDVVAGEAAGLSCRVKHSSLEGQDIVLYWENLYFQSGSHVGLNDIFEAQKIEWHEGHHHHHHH
Procedure: as §1, §2

AF647‐labeled hCD1d [3] = biological target: T3, AF647‐labeled hCD1d (Homo sapiens, UniProt P15813); experiment: Microscale thermophoresis (MST) binding assay
T3 construct: TEV protease cleavage site ENLYFQS (C); BirA biotinylation site (C); His7 (C); made in house; host or cells: TurboCHO cells (GenScript)
T3 sequence (P15813 whole entry, looked up): as the sequence (P15813 whole entry, looked up, the tested form may be a part, one chain of several) above
Method in brief: (§3)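 hCD1d was NHS-labeled with AF647 (~75% labeling) and held at 100 nM against rising detergent or 18:1 LPC in PBS pH 7.4. Samples were preincubated at 37°C overnight (~12 h) and read at 25°C with 20 s IR-on time. Data are mean ± SD, n = 3.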

AF647‐labeled hCD1d [4] = biological target: T4, AF647‐labeled hCD1d (Homo sapiens, UniProt P15813+P61769); experiment: Microscale thermophoresis (MST) binding assay
T4 construct: TEV protease cleavage site ENLYFQS (C); BirA biotinylation site (C); His7 (C); made in house; host or cells: TurboCHO cells (GenScript)
T4 sequence (P61769+P15813 fused): as the sequence (P61769+P15813 fused) above
Method in brief: as §3

[5] = approximate, cited from earlier work
[6] = ITF - Kd (uM) average, Figure 5A, detergent binding to hCD1d
[7] = 0.001 M detergent, 100 nM hCD1d
[8] = K D (MST), detergent with 100 nM AF647‐labeled hCD1d, 25°C, apparent
[9] = MST - Kd (uM) average, Figure 5B, detergent binding to hCD1d
[10] = 0.001 M detergent, 100 nM AF647‐hCD1d
[11] = weight/volume, ref Anatrace catalogue

| SMILES | Kd [1, 6] [µM] | F-F0/F0 (rep 1-3) ([2]; 3.0518e-8 M detergent) | F-F0/F0 (rep 1-3) ([2]; 0.00025 M detergent) | F-F0/F0 (rep 1-3) [2, 7] | Kd (AF647‐labeled hCD1d [3]; [8]) [µM] | Kd (AF647‐labeled hCD1d [3]; [9]) [µM] | Fnorm (rep 1-3) (AF647‐labeled hCD1d [4]; 4.88281e-7 M detergent) | Fnorm (rep 1-3) (AF647‐labeled hCD1d [4]; 9.76563e-7 M detergent) | Fnorm (rep 1-3) (AF647‐labeled hCD1d [4]; 1.95313e-6 M detergent) | Fnorm (rep 1-3) (AF647‐labeled hCD1d [4]; 3.90625e-6 M detergent) | Fnorm (rep 1-3) (AF647‐labeled hCD1d [4]; 7.8125e-6 M detergent) | Fnorm (rep 1-3) (AF647‐labeled hCD1d [4]; 1.5625e-5 M detergent) | Fnorm (rep 1-3) (AF647‐labeled hCD1d [4]; 3.125e-5 M detergent) | Fnorm (rep 1-3) (AF647‐labeled hCD1d [4]; 6.25e-5 M detergent) | Fnorm (rep 1-3) (AF647‐labeled hCD1d [4]; 0.000125 M detergent) | Fnorm (rep 1-3) (AF647‐labeled hCD1d [4]; 0.00025 M detergent) | Fnorm (rep 1-3) (AF647‐labeled hCD1d [4]; 0.0005 M detergent) | Fnorm (rep 1-3) (AF647‐labeled hCD1d [4]; [10]) | binding to hCD1d by ITF (in words) [2] | Fnorm (rep 1-3) (AF647‐labeled hCD1d [4]; 3.05176e-8 M detergent) | also measured |
| --- | --- | --- | --- | --- | --- | --- | --- | --- | --- | --- | --- | --- | --- | --- | --- | --- | --- | --- | --- | --- | --- |
| CCCCCCCCCCCCCCCC[N+](C)(C)C [CTAB, hexadecyltrimethylammonium bromide] | 41.5 | 0 | 1.44 and 1.52 and 1.46 | 1.83 and 1.56 and 1.71 | 10.9 ± 1.2 | 10.9 | 812.075 ‰ and 810.216 ‰ and 807.19 ‰ | 814.18 ‰ and 810.332 ‰ and 807.136 ‰ | 814.445 ‰ and 813.166 ‰ and 810.178 ‰ | 815.986 ‰ and 818.175 ‰ and 815.532 ‰ | 824.731 ‰ and 823.149 ‰ and 822.329 ‰ | 835 ‰ and 828.362 ‰ and 831.779 ‰ | 849.376 ‰ and 847.531 ‰ and 847.477 ‰ | 858.509 ‰ and 854.12 ‰ and 851.197 ‰ | 844.143 ‰ and 841.907 ‰ and 839.82 ‰ | 844.455 ‰ and 843.492 ‰ and 841.952 ‰ | 845.737 ‰ and 843.294 ‰ and 845.557 ‰ | 845.54 ‰ and 843.477 ‰ and 843.19 ‰ |  |  | Kd ([1]; K D (ITF), detergent with 100 nM hCD1d, 25°C, 1X PBS pH 7.4, apparent): 41.5 ± 6.5 µM; F-F0/F0 (rep 1-3) ([2]; 3.125e-5 M detergent): 0.613 and 0.517 and 0.672; F-F0/F0 (rep 1-3) ([2]; 6.25e-5 M detergent): 0.966 and 1.08 and 1.22; F-F0/F0 (rep 1-3) ([2]; 0.000125 M detergent): 1.45 and 1.3 and 1.29; F-F0/F0 (rep 1-3) ([2]; 0.0005 M detergent): 1.55 and 1.65 and 1.44; CMC ([5]; ref Sigma Aldrich catalogue): 920 µM; CMC ([5]; weight/volume, ref Sigma Aldrich catalogue): 0.033% |
| CCCCCCCCCCCC[N+](C)(C)[O-] [LDAO, lauryldimethylamine‐N‐oxide] |  | 0 | 0.1026 and 0.1076 and 0.1826 | 0.4171 and 0.3604 and 0.4782 |  |  | 815.87 ‰ and 817.501 ‰ and 814.61 ‰ | 819.746 ‰ and 816.532 ‰ and 815.008 ‰ | 821.408 ‰ and 818.645 ‰ and 816.968 ‰ | 814.412 ‰ and 819.336 ‰ and 814.062 ‰ | 818.471 ‰ and 817.826 ‰ and 814.305 ‰ | 818.754 ‰ and 820.576 ‰ and 816.619 ‰ | 825.871 ‰ and 823.407 ‰ and 821.261 ‰ | 827.8 ‰ and 827.022 ‰ and 819.019 ‰ | 840.896 ‰ and 830.059 ‰ and 833.855 ‰ | 853.04 ‰ and 842.052 ‰ and 840.306 ‰ | 856.938 ‰ and 859.889 ‰ and 860.509 ‰ | 853.851 ‰ and 856.381 ‰ and 852.289 ‰ | observable binding | 814.692 ‰ and 814.467 ‰ and 814.489 ‰ | Kd ([1]; detergent with 100 nM hCD1d, 25°C, 1X PBS pH 7.4, apparent, read-out: K D (ITF)): > 10000 µM; F-F0/F0 (rep 1-3) ([2]; 1.2207e-7 M detergent): 0.07548 and 0.05543 and 0.06384; F-F0/F0 (rep 1-3) ([2]; 4.8828e-7 M detergent): 0.06847 and 0.06205 and 0.06021; Kd (AF647‐labeled hCD1d [3]; Figure 5B, detergent binding to hCD1d, read-out: MST - Kd (uM) average): 157 µM; Kd (AF647‐labeled hCD1d [3]; detergent with 100 nM AF647‐labeled hCD1d, 25°C, apparent, read-out: K D (MST)): 157 ± 58.6 µM; Fnorm (rep 1-3) (AF647‐labeled hCD1d [4]; 6.10352e-8 M detergent): 817.057 ‰ and 815.567 ‰ and 813.955 ‰; Fnorm (rep 1-3) (AF647‐labeled hCD1d [4]; 1.2207e-7 M detergent): 815.153 ‰ and 815.733 ‰ and 813.219 ‰; Fnorm (rep 1-3) (AF647‐labeled hCD1d [4]; 2.44141e-7 M detergent): 820.838 ‰ and 814.573 ‰ and 816.312 ‰; CMC ([5]; ref Anatrace catalogue): 1000 µM; CMC [5, 11]: 0.023% |
| C[C@H](CCC(=O)NCCC[N+](C)(C)CCCS(=O)(=O)[O-])[C@H]1CC[C@H]2[C@@H]3[C@H](O)C[C@@H]4C[C@H](O)CC[C@]4(C)[C@H]3C[C@H](O)[C@]12C [CHAPS, 3‐((3‐cholamidopropyl) dimethylammonio)‐1‐propanesulfonate] | 269 | 0 |  | 0.1904 and 0.2276 and 0.116 | < 200 | 90.4 | 790.852 ‰ and 792.443 ‰ and 789.72 ‰ | 790.963 ‰ and 791.166 ‰ and 789.816 ‰ | 790.601 ‰ and 790.682 ‰ and 790.374 ‰ | 791.182 ‰ and 790.338 ‰ and 790.7 ‰ | 792.893 ‰ and 791.581 ‰ and 790.149 ‰ | 792.783 ‰ and 794.481 ‰ and 793.14 ‰ | 797.777 ‰ and 796.648 ‰ and 796.885 ‰ | 802.833 ‰ and 802.212 ‰ and 800.436 ‰ | 807.041 ‰ and 807.203 ‰ and 808.474 ‰ | 810.973 ‰ and 810.93 ‰ and 810.716 ‰ | 814.652 ‰ and 812.289 ‰ and 815.372 ‰ | 815.189 ‰ and 817.537 ‰ and 819.368 ‰ | observable binding | 790.173 ‰ and 791.465 ‰ and 791.791 ‰ | Kd ([2]; read-out: K D (ITF), detergent with 100 nM hCD1d, 25°C, 1X PBS pH 7.4, apparent): < 400 µM; Fnorm (rep 1-3) (AF647‐labeled hCD1d [4]; 6.10352e-8 M detergent): 791.241 ‰ and 791.286 ‰ and 792.264 ‰; Fnorm (rep 1-3) (AF647‐labeled hCD1d [4]; 1.2207e-7 M detergent): 790.851 ‰ and 791.968 ‰ and 791.334 ‰; Fnorm (rep 1-3) (AF647‐labeled hCD1d [4]; 2.44141e-7 M detergent): 791.909 ‰ and 789.682 ‰ and 791.374 ‰; CMC ([5]; ref Anatrace catalogue): 8000 µM; CMC [5, 11]: 0.49% |
